Laboratory results taken from paper PMC10708527, “Salazinic Acid and Norlobaridone from the Lichen Hypotrachyna cirrhata: Antioxidant Activity, α-Glucosidase Inhibitory and Molecular Docking Studies” (Molecules, 2023).

Biological target: T1, intestinal α-glucosidase
T1 construct: crude rat intestinal enzyme
Experiment: crude enzyme inhibition, p-nitrophenyl-α-D-glucopyranoside hydrolysis at […] nm
Format: biochemical, Rattus norvegicus

Row | Intestinal α-Glucosidase % Inhibition (IC50) | SMILES
1 | 2.07 ± 0.01 µg/mL | COC(=O)c1c(C)cc(OC(=O)c2c(C)cc(O)c(C=O)c2O)c(C)c1O [compound 13, atranorin]
2 | 2.58 ± 0.85 µg/mL | C[C@H]1O[C@H](O[C@H]2[C@H](O)[C@@H](O)[C@@H](O[C@H]3[C@H](O)[C@@H](O)C(O)O[C@@H]3CO)O[C@@H]2CO)[C@H](O)[C@@H](O)[C@@H]1N[C@H]1C=C(CO)[C@@H](O)[C@H](O)[C@H]1O (some centres unmarked) [acarbose, reference compound]
3 | 1.41 ± 0.01 µg/mL | CCCCCc1cc(O)cc2c1Oc1cc(O)cc(C(=O)CCCC)c1C(=O)O2 [compound 12, norlobaridone]
4 | 1.62 ± 0.07 µg/mL | Cc1cc(O)c(C=O)c2c1C(=O)Oc1c(CO)c(O)c3c(c1O2)C(O)OC3=O (centres unmarked) [compound 11, salazinic acid]
5 | 1.99 ± 0.03 µg/mL | COc1c(C)c(O)cc(C)c1C(=O)O [compound 18, iso-rhizonic acid]
